Like-named read-outs stand apart in the source and are kept apart here.
Biological target: BTK (Homo sapiens, UniProt Q06187)
Experiment: biochemical
[1] = read-out: BTK inhibition (%), 0.75 uM BTK, […] probe 3l, 15 min preincubation

Sequence of BTK (Q06187 402-655 limits assumed): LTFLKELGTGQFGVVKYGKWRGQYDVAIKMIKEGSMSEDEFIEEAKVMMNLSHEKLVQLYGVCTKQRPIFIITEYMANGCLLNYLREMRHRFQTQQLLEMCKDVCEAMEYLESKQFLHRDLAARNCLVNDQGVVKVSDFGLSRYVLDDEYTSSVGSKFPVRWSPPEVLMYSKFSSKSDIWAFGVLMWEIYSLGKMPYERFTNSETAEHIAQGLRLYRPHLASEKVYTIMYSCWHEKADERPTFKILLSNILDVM

| Structure (SMILES) | inhibition at 10 µM [1] [%] | inhibition at 10 µM (read-out: BTK inhibition (%)) [%] |
| --- | --- | --- |
| CCNC(=O)C#Cc1ccc2c(C(=Nc3ccc(CN(C)C)cc3)c3ccccc3)c(O)[nH]c2c1 [PCM-0215488] | 88.3 |  |
| C[C@@]12CC[C@@H]3[C@@](CC[C@H]4[C@@]3(C)CCC[C@@]4(C)C(=O)O)(CC1=O)C2 [PCM-0215049] | -16.3 |  |
| CC(=O)Oc1ccc(C(=C2CCCCC2)c2ccc(OC(C)=O)cc2)cc1 [PCM-0216241] | -3.9 |  |
| COc1ccc(C(=O)C2CCN(CC(=O)N(Cc3nc4c(c(=O)[nH]3)COCC4)CC3CC3)CC2)cc1 [PCM-0215580] | -6.9 |  |
| OB1OCc2cc(F)ccc21 [PCM-0101990] | -10 |  |
| CO[C@@H](C)Cn1c(=O)n(C)c2cnc3ccc(-c4cncc(C(C)(C)O)c4)cc3c21 [PCM-0215675] | -11 |  |
| Fc1ccc(CNc2ncnc3ccc(F)cc23)cc1 [PCM-0215554] | -17 |  |
| CC1=C(CC[C@@H](C)CO[C@@H]2O[C@H](CO)[C@@H](O)[C@H](O)[C@H]2O)O[C@H]2C[C@H]3[C@@H]4CC=C5C[C@@H](O[C@@H]6O[C@H](CO)[C@@H](O[C@@H]7O[C@@H](C)[C@H](O)[C@@H](O)[C@H]7O)[C@H](O)[C@H]6O[C@@H]6O[C@@H](C)[C@H](O)[C@@H](O)[C@H]6O)CC[C@]5(C)[C@H]4CC[C@]3(C)[C@@H]12 [PCM-0216365] | -11.9 |  |
| Cn1cc(-c2ccc3ncc(Cc4ccc5ncccc5c4)n3n2)cn1 [PCM-0095521] | -16.6 |  |
| O=C(Nc1cc(Cl)cc2c1[nH]c1cnccc12)c1cccnc1 [PCM-0215579] | 12.4 |  |
| CCn1c2ccccc2c2cc(CNCc3ccccc3OC)ccc21 [PCM-0215626] | -27.8 |  |
| CCOC(=O)C1=C[C@]2(CC)CCCN3CCc4c(n1c1ccccc41)[C@@H]32 [PCM-0064941] | -14.5 |  |
| CC(=O)SCC(Cc1ccccc1)C(=O)NCC(=O)OCc1ccccc1 (centres unmarked) [PCM-0086128] | 3.1 |  |
| COc1ccc(N(C(=O)Oc2c(C)cccc2C)c2ccnc(Nc3ccc(N4CCN(C)CC4)cc3)n2)c(OC)c1 [PCM-0215345] |  | 24.1 |
| CC#CCn1c(N2CCC[C@@H](N)C2)nc2c1c(=O)n(Cc1nc(C)c3ccccc3n1)c(=O)n2C [PCM-0090431] | -3.1 |  |
| CC(C)(C)C[C@@H]1N[C@@H](C(=O)NC2CCC(O)CC2)[C@H](c2cccc(Cl)c2F)[C@]12C(=O)Nc1cc(Cl)ccc12 (some centres unmarked) [PCM-0215450] | 21.6 |  |
| O=S(=O)(NC1CCCCC1)c1ccc2c(c1)C(=NO)c1cc(S(=O)(=O)NC3CCCCC3)ccc1-2 [PCM-0215862] | 1.5 |  |
| COc1ccc(CNCc2cccc3ccccc23)cc1 [PCM-0095454] | -19.5 |  |
| Cc1nc(N)sc1-c1ccnc(Nc2ccc(N3CCOCC3)cc2)n1 [PCM-0095025] | 57.2 |  |
| N#Cc1c(N)nc(NC2CC2)nc1N [PCM-0216125] | 14 |  |
| CN1C(=O)[C@@H](NC(=O)c2cc(Cc3ccccc3)on2)COc2ccccc21 [PCM-0213452] | 3.1 |  |
| NC(=O)c1nc(F)c[nH]c1=O [PCM-0215543] | -6.2 |  |
| OC1CCC(Oc2cccc3cnc(Nc4ccc5nc[nH]c5c4)nc23)CC1 (centres unmarked) [PCM-0215798] | 66.2 |  |
| O=C(NOCC1CC1)c1ccc(F)c(F)c1Nc1ccc(I)cc1Cl [PCM-0094919] | 5.5 |  |

| Structure (SMILES) | inhibition at 10 µM [1] [%] | inhibition at 10 µM (read-out: BTK inhibition (%)) [%] |
| --- | --- | --- |
| COc1ccc(C(=O)CC(=O)c2ccc(C(C)(C)C)cc2)cc1 [PCM-0090378] | -3.9 |  |
| Fc1cc(F)c2c(c1)[C@H]1C=CC[C@H]1C(c1cccnc1)N2 (some centres unmarked) [PCM-0215243] | -18.5 |  |
| C[C@@H]1O[C@@H](O[C@H]2[C@H](O[C@H]3CC[C@@]4(C)[C@@H](CC[C@]5(C)[C@@H]4CC=C4[C@@H]6CC(C)(C)CC[C@]6(C(=O)O[C@@H]6O[C@H](CO[C@@H]7O[C@H](CO)[C@@H](O)[C@H](O)[C@H]7O)[C@@H](O)[C@H](O)[C@H]6O)CC[C@]45C)[C@]3(C)CO)OC[C@H](O)[C@@H]2O)[C@H](O)[C@H](O[C@@H]2O[C@H](CO)[C@@H](O)[C@H](O)[C@H]2O)[C@H]1O [PCM-0216447] | -21.6 |  |
| CC(C)OC(=O)C(C(=O)OC(C)C)=C1SC=CS1 [PCM-0094945] | 3.9 |  |
| O=C(O)C(=O)O [PCM-0216287] | -10 |  |
| CN(C)C/C=C/C(=O)Nc1cc2c(Nc3ccc(F)c(Cl)c3)ncnc2cc1O[C@H]1CCOC1 [PCM-0094907] | 84.8 |  |
| CCC(C)CC(C)CCCCCCCCC(=O)N[C@H]1C[C@@H](O)[C@@H](NCCN)NC(=O)[C@@H]2[C@@H](O)CCN2C(=O)[C@H]([C@H](O)CCN)NC(=O)[C@H]([C@H](O)[C@@H](O)c2ccc(O)cc2)NC(=O)[C@@H]2C[C@@H](O)CN2C(=O)[C@H]([C@@H](C)O)NC1=O (some centres unmarked) [PCM-0215354] | 11.1 |  |
| O=[N+]([O-])c1ccc(Nc2nc(N3CCOCC3)nc(N3CCOCC3)n2)cc1 [PCM-0215468] | 0 |  |
| C[C@H]1O[C@H](O[C@H]2[C@H](O)[C@@H](O)[C@@H](O[C@@H]([C@H](O)[C@@H](O)C=O)[C@H](O)CO)O[C@@H]2CO)[C@H](O)[C@@H](O)[C@@H]1N[C@H]1C=C(CO)[C@@H](O)[C@H](O)[C@H]1O [PCM-0214720] | -7 |  |
| Cc1nc(Nc2ccc(F)cc2)nc(N2CCc3ccccc3C2C)c1C (centres unmarked) [PCM-0216015] | 79.3 |  |
| Nc1nc(=O)n([C@@H]2CS[C@H](CO)O2)cc1F [PCM-0086099] | -10.1 |  |
| CC[C@H](Nc1ncnc2nc[nH]c12)c1oc2ccccc2c(=O)c1-c1cccc(F)c1 [PCM-0216040] | 8.5 |  |
| CCCCCCCCCCCCCc1cccc(O)c1C(=O)O [PCM-0216334] | 34 |  |
| C[C@H](CS)C(=O)N1CCC[C@H]1C(=O)O [PCM-0064658] | -2.3 |  |
| COc1cc(O)c(C(=O)c2ccccc2)cc1S(=O)(=O)O [PCM-0214826] | -1.6 |  |
| Cc1ccc(NC(=O)Nc2cc(C(F)(F)F)ccc2F)cc1Nc1ccc2c(c1)NC(=O)/C2=C\c1ccc[nH]1 [PCM-0215372] | 116 |  |
| COc1cc2c(c(O)c1OC)-c1c(cc(OC)c(OC)c1OC)C[C@@H](C)[C@@H](C)C2 [PCM-0216483] | 23.9 |  |
| O=C(Nc1c(Cl)cncc1Cl)c1ccc(OC(F)F)c(OCC2CC2)c1 [PCM-0095310] | 3.1 |  |
| c1ccc2[nH]c(-c3cscn3)nc2c1 [PCM-0086067] | -17.1 |  |
| CCN(c1cc(-c2ccc(CN3CCOCC3)cc2)cc(C(=O)NCc2c(C)cc(C)[nH]c2=O)c1C)C1CCOCC1 [PCM-0095796] | -2.6 |  |
| O=C(O)c1ccc(O)cc1 [PCM-0214982] | -10.9 |  |
| COCCOC(=O)C1=C(C)NC(C)=C(C(=O)OC(C)C)C1c1cccc([N+](=O)[O-])c1 (centres unmarked) [PCM-0064753] | 5.4 |  |
| COC(=O)[C@H](CCSC)NC(=O)c1ccc(NC[C@@H](N)CS)cc1-c1ccccc1 [PCM-0215424] | -57.9 |  |
| Cc1cc(O)cc(O[C@@H]2O[C@H](CO)[C@@H](O)[C@H](O)[C@H]2O)c1 [PCM-0214958] | -10.1 |  |

| Structure (SMILES) | inhibition at 10 µM [1] [%] | inhibition at 10 µM (read-out: BTK inhibition (%)) [%] |
| --- | --- | --- |
| COc1ccc(-c2cc(=O)c3c(O)c(OC)c(O)c(OC)c3o2)cc1 [PCM-0214999] | 80.7 |  |
| CC(C)NCC(O)COc1cccc2ccccc12 (centres unmarked) [PCM-0064763] | -12.5 |  |
| C[C@H](Oc1ccc(S(C)(=O)=O)cc1C(=O)N1CCN(c2ncc(C(F)(F)F)cc2F)CC1)C(F)(F)F [PCM-0215624] | -20.1 |  |
| CC[C@H](C)[C@H](N)C(=O)O [PCM-0215927] | 7.7 |  |
| Cc1cnc(-c2ccccc2C(C)C)nc1NCc1ccc(-n2ccnn2)cc1 [PCM-0095782] | 3.9 |  |
| CN[C@@H]1[C@H](O)[C@H](NC)[C@H]2O[C@@]3(O)C(=O)C[C@@H](C)O[C@H]3O[C@@H]2[C@H]1O [PCM-0214688] | 2.3 |  |
| COc1cc(/C=C/C(=O)N2CCN(CC(=O)N3CCCC3)CC2)cc(OC)c1OC [PCM-0095532] | 0 |  |
| C[C@@H]1O[C@@H](O[C@H]2[C@H](O[C@H]3CC[C@@]4(C)[C@@H](CC[C@]5(C)[C@@H]4CC=C4[C@@H]6CC(C)(C)CC[C@]6(C(=O)O)CC[C@]45C)[C@]3(C)CO)OC[C@H](O[C@@H]3O[C@H](CO)[C@@H](O)[C@H](O)[C@H]3O)[C@@H]2O)[C@H](O)[C@H](O)[C@H]1O [PCM-0216539] | 52.5 |  |
| C=C1C[C@@]2(O)O[C@@]3(C[C@H]2C(C)C)[C@@H](C)CC[C@@H]13 [PCM-0214683] | -1.6 |  |
| Cc1ccc2nc(CN(CCN(Cc3nc4ccc(C)cc4[nH]3)Cc3nc4ccc(C)cc4[nH]3)Cc3nc4ccc(C)cc4[nH]3)[nH]c2c1 [PCM-0215616] | 95.8 |  |
| CCCc1cc(=O)[nH]c(=S)[nH]1 [PCM-0085981] | 3.1 |  |
| O=C(/C=C/c1ccc(O)cc1)c1ccc(O)cc1O [PCM-0065490] | 17.1 |  |
| CC1CCCCCCCCCCCCC(=O)C1 (centres unmarked) [PCM-0215929] | 0.7 |  |
| C[C@H](CCC(=O)NCC(=O)O)[C@H]1CC[C@H]2[C@@H]3[C@H](O)C[C@@H]4C[C@H](O)CC[C@]4(C)[C@H]3C[C@H](O)[C@]12C [PCM-0215147] | -10.1 |  |
| COC(=O)[C@@H](N)CCCN=C(N)N[N+](=O)[O-] [PCM-0215172] | 19.6 |  |
| CC(C)C(=O)Nc1ccc([N+](=O)[O-])c(C(F)(F)F)c1 [PCM-0065325] | -3.4 |  |
| C[C@@H](OC[C@@]1(c2ccccc2)CC[C@]2(CCC(=O)N2)CN1)c1cc(C(F)(F)F)cc(C(F)(F)F)c1 [PCM-0216647] | -48.6 |  |
| Cc1ccc(C(=O)N(CCCN)[C@@H](c2oc3cc(Cl)ccc3c(=O)c2Cc2ccccc2)C(C)C)cc1 [PCM-0095226] | -2.3 |  |
| CCCC(=O)Nc1cccc(NC(=O)c2ccccc2Br)c1 [PCM-0095401] | 19.5 |  |
| CO[C@H]1O[C@@H]2O[C@@]3(C)CC[C@H]4[C@H](C)CC[C@@H]([C@H]1C)[C@@]24OO3 [PCM-0214640] | 3.1 |  |
| Cc1ccccc1-n1c(CF)nc2ccc(N)cc2c1=O [PCM-0214908] |  | 2.3 |
| Cc1cc(=O)c2c(O)c3c(cc2o1)OC(C)(C)[C@@H](O[C@@H]1O[C@H](CO)[C@@H](O)[C@H](O)[C@H]1O)C3 [PCM-0216445] | -30.1 |  |
| CCCC[N+]1(C)[C@@H]2CC(OC(=O)[C@H](CO)c3ccccc3)C[C@H]1[C@@H]1O[C@@H]12 (some centres unmarked) [PCM-0086491] | -17.9 |  |
